Patent publication US20140161767A1, “FOLLICLE-STIMULATING HORMONE (FSH)/LYTIC DOMAIN FUSION CONSTRUCTS AND METHODS OF MAKING AND USING SAME” (BOARD OF SUPERVISORS OF LOUISIANA STATE UNIVERSITY AND …, priority 2012, published 2014)

Assays:
OVCAR-3 [1] = assay: Cell viability after 4 hours (Cell Titer Glo), OVCAR-3; assay type: cell-based, human; conditions: 4 h incubation; read-out: Activities [μM] OVCAR-3 (p41)
Method: (§1) Human ovarian cancer cell lines OVCAR-3 (p 41), SKOV-3 (p 35) and the human uterine sarcoma cell line MES-SA-Dx5 (p 61) (multi-drug resistant clone), the human pancreatic cancer cell line Panc-1 (passage number 18), and human triple negative breast cancer cell line MDA-MB-231 (passage number 47) were grown in ATCC recommended medium, 10% fetal bovine serum, 100 IU/ml penicillin, 100 microg/ml streptomycin. Cells were typically seeded (2,000 cells per well) into 96 well plates and media was replaced after 48 hours of incubation. […] Each Phor-18-hFSH-β81-89 conjugate provided in lyophilized form was dissolved in saline and added to cells. The duration of incubation was 4 hours at 37° C. Cell viability was assessed after 4 hours using a luminometric assays (Promega, Cell Titer Glo, G755B, lot #00000031421). Controls contained saline or 0.1% triton as reference for 0 and 100% cell death, respectively.
(§2) Data were processed and analyzed using GraphPad Prism version 5.00 for Windows, GraphPad Software, San Diego Calif. USA, www.graphpad.com”. Statistical analysis for significance was determined by a two-tailed Student's T-test. Each study was conducted to achieve an N of at least 6.
(§3) In vitro activities were expressed as IC50 values for each cell line, time point and compound tested that were calculated using the Hill equation (Graph Pad Prizm software).

MDA-MB-231 = assay: Cell viability after 4 hours (Cell Titer Glo), MDA-MB-231; assay type: cell-based, human; conditions: 4 h incubation; read-out: Activities [μM] MDA-MB-231 (p47)
Method: as §1, §2, §3

MDA-MB-435 = assay: Fluorescence microscopy, mechanism of action in MDA-MB-435 cells; assay type: cell-based, human; conditions: 10 μM, 5 minutes exposure
Method: In brief, human breast cancer cells (MDA-MB-435, passage #252) were seeded onto culture dishes. The following markers were introduced prior to adding EP100: DRAQ5™ (Alexis Corporation)—blue—was used for staining of the nucleus and MnoTracker® Red CMXRos (M7512) (Molecular Probes, Inc. OR) were applied for visualizing intact mitochondria. Cell membranes were stained with wheat germ alexa fluor green conjugates (Molecular Probes, Inc. OR).
Cells were loaded first with Mitotracker dye, according to the manufacturers recommendation. […] Culture dishes with saline only served as controls. The supernatant was removed and the remaining cells prepared for fluorescence microscopy imaging.

OVCAR-3 [2] = assay: IC50 in human cancer cell lines compared to cisplatinum: OVCAR-3; assay type: cell-based; conditions: ovarian cancer cell line
Method: MDA-MB-435S.luc cells were grown in Leibovitz's L 15 medium, 10% fetal bovine serum, 0.01 mg/ml bovine insulin, 100 IU/ml penicillin, 100 microg/ml streptomycin. The cells were cultured in tight closed flasks. The incubations were conducted using 96 well plates at 10,000 cells per well. Cells were typically seeded into 96 well plates and media was replaced after 48 hours of incubation. Each assay was conducted at increasing concentrations of 0, 0.001, 0.01, 0.05, 0.1, 0.5, 1, 2, 5, 10 and 100 micromolar doses of lytic peptide-binding domain conjugate. Each lytic peptide-binding domain conjugate provided in lyophilized form and was freshly dissolved in saline and added to cells. The duration of incubation was typically 24 h, and cell viability assays were conducted using formazan conversion assays (MTT assay). Controls contained saline or 0.1% triton as reference for 0 and 100% cell death, respectively.
To ascertain the IC50 of various fusion constructs on different human cancer cell lines compared to cisplatinum, IC50 of fusion constructs were evaluated as in Table 3.

[3] = test system: MDA-MB-435S.luc xenograft; assay: Mouse xenograft model of breast cancer, LHRH fusion constructs; assay type: in vivo, mice
Method: For LHRH fusion constructs, the mouse xenograft model for breast cancer was used. In brief, Nu/Nu female mice, outbred strain, age 5 weeks (Charles River) were injected subcutaneously with a MDA-MB-435S.luc/Matrigel suspension (1×10^6 cells). Treatment was started on day 21 after tumor cell injection and continued on day 26 and 29. The doses for weekly fusion construct injections were 2, 0.2 and 0.02 mg/kg body weight, given as a bolus single injection. All mice were necropsied 34 days after tumor cell injection—baseline values for tumor weights were obtained by sacrificing 8 mice at treatment start. Primary tumors, liver, kidney, pancreas, heart, lung, and spleen were collected and prepared for histological evaluation in formalin. Tumor weights were recorded at necropsy, part of the tumors were frozen at −80° C. for luciferase assay determination.
Characteristics of tumors at necropsy are summarized in FIG. 10: (A) tumor weight, (B) changes of tumor weights compared to baseline, (C) total number of live tumor cells, (D) changes of total live tumor cells compared to baseline, and (E) bodyweights at baseline and necropsy. Viability of tumor cells was determined at the end of the study when tumors were measured for luciferase activity. Treatment efficacy was calculated as difference between measurements at the beginning of treatment compared to the measurement at the end of study (FIGS. 10B and 10D).

NIH:3T3 = assay type: cell-based, mouse; conditions: non cancerous cell line 3T3
Source text: Membranes of non-cancerous cell lines are neutral and are resistant to cytolytic peptides, in contrast to cancer cell lines, which have a high phosphatidic acid content in their outer membrane.
The breast cancer cell lines studied were MDA-MB-4355 (estrogen receptor alpha negative), MCF-7 and T47D (estrogen receptor alpha positive), ovarian cancer cell lines (OVCAR-3 and SKOV-3), prostate cancer (LNCaP), the non-malignant breast epithelial cell line MCF-10A and the mouse fibroblast cell line NIH:3T3.
Cells were seeded into 96 well plates at a densitiy of 10,000 cells/well. […] Controls contained USP saline or 0.1% TritonX-100™ as reference for 0 and 100% cell death, respectively. […] Cell viability was assessed through formazan conversion assay (MTT assay, (CellTiter 96 Aqueous One, Promega # G3582). Formazan conversion was determined using a BioRad Benchmark Plus microplate spectrophotometer dual wavelengths at 490/630 nm at room temperature).
Data were calculated as fraction of absorption in TritonX-100™ containing wells representing 100% cell death versus 0% cell death in saline containing wells. Cytotoxicity was determined as IC50 using GraphPad Prism version 5.01 for Windows, GraphPad Software, San Diego Calif. […] 4 wells of each individual set of two 96 well plates were compared and analyzed. Statistical analysis for significance was determined by a two-tailed Student's T-test.

## KFAKFAK KFAKFAK KFAK [Phor18]
OVCAR-3 [1]
  IC50: 20.5 ± 5.1 µM
MDA-MB-231
  IC50: 18.9 ± 0.8 µM

## KFAKFAKKFAKFAKKFAKQHWSYGLRPG [Phor18-LHRH]
MDA-MB-435
  Plasma membrane (fluorescence microscopy): disintegration of the plasma membrane
OVCAR-3 [2]
  IC50: 3 ± 0.5 µM
[3]; mouse, in vivo
  Concentrations resulting in tumor weights similar to baseline: 0.2 mg/kg
  In vivo tumor efficacy compared to reference Phor21-βCG-ala (tumor weight, viable tumor cells): Equally effective
[3]; p<0.01
  Tumor volume after 30 days compared to baseline: smallest tumor volumes
NIH:3T3
  IC50: > 10 µM
